Laboratory results as given in US20160279135A1, “THERAPIES FOR TREATING MYELOPROLIFERATIVE DISORDERS” (Gilead Sciences, Inc., priority 2013, published 2016).
“And” between values parts separate entries of the source, which are not always exact repeats. Identical values can stand only once. Like-named read-outs stand apart in the source and are kept apart here.

Columns and labels:
p-S6RP = assay: flow cytometry of p-S6RP in TPO-stimulated CD34+ cells from MF patients on chronic ruxolitinib (Example 8); type: cell-based, human; details: for percentage of the p-S6RP levels: 2 h, then TPO 50 ng/mL, one value per patient, TPO vehicle = 100
Procedure: In this study, PBMCs were isolated from the whole blood from five MF patients receiving chronic ruxolitinib treatment (rux 1-rux 5). The cells were treated with either vehicle, ruxolitinib, and/or Compound B for 2 hours then stimulated with TPO (50 ng/mL) for 10 minutes. Ruxolitinib at the dose of 1 or 20 nM and Compound B at the dose of 45, 200, or 700 nM were used.
The treated cells were then fixed, permeabilized and stained for FACS analysis using FACSCalibur analyzed using BD FACSDiva software.

p-AKT Ser473 [1] = assay: Western blot of AKT phosphorylation in BaF3/MPL cells; type: cell-based; details: 2 h, then TPO 50 ng/mL 10 min, vs vehicle
Procedure: (§1) In addition, Compound B was examined for the effects on the PI3K signaling pathway by determining the levels of AKT and S6 phosphorylation with or without TPO activation. Two cell lines, BaF3/MPL and UT-7/TPO sensitive or responsive to TPO activation were used. The cells were starved (i.e. growing on medium having less FBS) in […] FBS/RPMI for two hours before treated with 0.1, 1.0, or 2.0 μM of Compound B or vehicle (0.1% DMSO in RPMI) for 2 hours at 37° C. To examine the TPO-activated phosphorylation, the cells were then treated or activated with 50 ng/mL of human recombinant TPO (Peprotech) for 10 minutes at 37° C. The TPO activation or treatment may reflect the conditions in diseased cells as the PI3K pathway is activated by TPO in myelofibrosis. After treating with compound and/or TPO, the cells were collected, lysed by lysis buffer (Cell Signaling), separated by SDS-PAGE, and analyzed by the Western blot using antibodies specific to p-AKT Ser473 or pS6 Ser235/236 (Cell Signaling). The phosphorylation levels in treated cells were calculated and compared to those of untreated cells (i.e. vehicle as negative control).

Pfeiffer cells = assay: CellTiter-Glo cell viability of Pfeiffer cells with IL6; type: cell-based; details: Homo sapiens, 96 h, n=4, read-out: percentage of viable Pfeiffer cells, AVG; for viability at […]: 74 nM Compound B; for viability at 0.2 µM: 200 nM Compound B; for viability at 0.421 µM: 421 nM Compound B
Procedure: Next, Pfeiffer cells were treated with IL6 (0 or 3 ng/mL), Compound A (0, 136, 272, or 695 nM), and/or Compound B (0, 74, 200, or 421 nM) (n=4 per group) for 96 hours.
Cellular viability was determined using the CellTiter-Glo Luminescent Cell Viability Assay (Promega). The percentage of viable cells was normalized to the groups that were not treated with Compound A or Compound B, and standard deviation was calculated.

p-AKT Ser473 [2] = assay: Western blot of AKT phosphorylation in UT-7/TPO cells; type: cell-based; details: 2 h, then TPO 50 ng/mL 10 min, vs vehicle
Procedure: as §1

How did the “percentage of the p-S6RP levels” value (p-S6RP; Compound B 45 nM) turn out when `CC[C@H](Nc1ncnc2[nH]cnc12)c1nc2cccc(F)c2c(=O)n1-c1ccccc1` [Compound B, (S)-2-(1-((9H-purin-6-yl)amino)propyl)-5-fluoro-3-phenylquinazolin-4(3H)-one] was run?
The value was 82% and 58% and 49% and 74% and 36%.

What about the “percentage of the p-S6RP levels” value (p-S6RP; Compound B 200 nM) of the same compound?
The value was 62% and 46% and 38% and 63% and 33%.

What about the “percentage of the p-S6RP levels” value (p-S6RP; Compound B 700 nM) of the same compound?
Its value is 46% and 48% and 32% and 55% and 17%.

And the inhibition at 0.045 µM (p-S6RP; Homo sapiens, Compound B 45 nM, TPO-stimulated cells vs vehicle, all five patients, read-out: p-S6RP levels decreased (inhibited) by)?
Its inhibition at 0.045 µM is 40%.

What about the inhibition at 0.2 µM (p-S6RP; Homo sapiens, Compound B 200 nM, TPO-stimulated cells vs vehicle, all five patients, read-out: p-S6RP levels decreased (inhibited) by) of the same compound?
Its inhibition at 0.2 µM is 52%.

And the inhibition at 0.7 µM (p-S6RP; Homo sapiens, Compound B 700 nM, TPO-stimulated cells vs vehicle, all five patients, read-out: p-S6RP levels decreased (inhibited) by)?
The inhibition at 0.7 µM was 60%.

And the “reduced p-AKT levels” value (p-AKT Ser473 [1]; 0.1 μM)?
The value was 51%.

And the “reduced p-AKT levels” value (p-AKT Ser473 [1]; 1.0 μM)?
Its value is 64%.

And the viability at […] (Pfeiffer cells; IL6 0 ng/mL)?
The viability at […] was 72%.

What about the viability at […] (Pfeiffer cells; IL6 3 ng/mL) of the same compound?
The viability at […] was 95%.

What about the viability at 0.2 µM (Pfeiffer cells; IL6 0 ng/mL) of the same compound?
Its viability at 0.2 µM is 63%.

And the viability at 0.2 µM (Pfeiffer cells; IL6 3 ng/mL)?
The viability at 0.2 µM was 91%.

And the viability at 0.421 µM (Pfeiffer cells; IL6 0 ng/mL)?
The viability at 0.421 µM was 54%.

What about the viability at 0.421 µM (Pfeiffer cells; IL6 3 ng/mL) of the same compound?
The viability at 0.421 µM was 83%.

What about the “reduced p-AKT levels” value (p-AKT Ser473 [2]; 0.1 μM) of the same compound?
The value was 11%.

What about the “reduced p-AKT levels” value (p-AKT Ser473 [2]; 1.0 μM) of the same compound?
Its value is 44%.

And the “reduced p-AKT levels” value (p-AKT Ser473 [2]; 2.0 μM)?
Its value is 55%.
